Values of other authors in patent US11878910B2, “Ph-based structural change of water soluble carbon nanoparticles for encapsulation and release of therapeutic agents in biological systems” (SINON THERAPEUTICS INC., priority 2015, dated 2024).

Q: With `C1=Cc2nc1c(-c1ccccc1)c1nc(c(-c3ccccc3)c3ccc([nH]3)c(-c3ccccc3)c3ccc([nH]3)c2-c2ccccc2)C=C1` [TPP, tetraphenylporphyrin] as the molecule, how does the solubility in water read?
A: insoluble
